Patent publication US9738623B2, “Curcumin analogs” (The General Hospital Corporation, priority 2012, dated 2017)

Key:
[1] = molecular target: T1, FAM-Aβ42 (Homo sapiens, UniProt P05067); assay: SDS-PAGE of copper-induced crosslinking of FAM-Aβ42; assay type: biochemical; settings: for intensity of monomeric Aβ bands relative to non-treated group: 4 hours incubation with copper sulfate and vitamin C
T1 construct: a Aβ42 labeled with fluorescent dye (FAM) (FAM-Aβ42); purchased American Peptide Company
Procedure: (§1) Samples were separated on 4-20% gradient Tris-glycine mini gels (Invitrogen). For FAM-Aβ42 gels, the images were acquired on IVIS®Spectrum (Caliper, Perkin Elmer) with excitation=465 nm, and emission=520 nm. For native Aβ42 gels, the gel was transferred to a nitrocellulose membrane in a cooled transferring buffer and the membrane was blocked at room temperature for 2 hours. After blocking, the membrane was incubated in a solution of 6E10 anti-Aβ primary antibody (1:2000 dilution, Covance, Dedham, Mass.) at 4° C. overnight. After washing with TBS buffer, the membrane was incubated with the secondary antibody for 2 hours at room temperature. Western Breeze Chemiluminescent kit (Invitrogen) was used to visualize the bands. The images were acquired using IVIS®Spectrum (Caliper, Perkin Elmer) using bioluminescence imaging setting. SeeBlue®plus2 (Invitrogen)(4-250KD) was used as a molecular weight marker.
(§2) All the samples used for SDS-PAGE gel and Western blot were prepared using the same procedure as described below. A 5 μL HFIP (hexafluoroisopropanol) solution (25 μM) of native Aβ42 or FAM-Aβ42 was added to a 1.5 mL eppendorf tube. After evaporating the organic solvent under vacuum, a 5 μL at DMSO or DMSO solution of CRANAD-17 (100 μM) was added to the tube, followed by the addition of 15 μL of Vitamin C solution in PBS (33.3 μM) and 5 μL of copper sulfate solution in PBS (12.5 μM). The resulting mixture was incubated at 37° C. for 4 hours, and was then subjected to gel electrophoresis. For dose dependency study, 5 μL of DMSO solution of different CRANAD-17 concentrations (25, 125, 250 μM) was added to obtain CRANAD-17/Aβ42 ratio equals 1:1, 5:1, and 10:1.

[2] = molecular target: T2, Aβ42 (Homo sapiens, UniProt P05067); assay: Western blot of copper-induced crosslinking of native Aβ42; assay type: biochemical; settings: for attenuation of copper-induced crosslinking of native Aβ42: 4 hours incubation; for high molecular weight species on gel: copper treated
T2 construct: Synthetic amyloid-β peptide (1-40/42) was purchased from rPeptide; purchased rPeptide (Bogart, Ga.)
Procedure: as §1, §2
To this end, human Aβ42 was incubated with curcumin, CRANAD-3 and CRANAD-17 under the same conditions as above.

[3] = molecular target: T3, [H13R]Aβ40 (Homo sapiens, UniProt P05067, H684R); assay: Fluorescence spectra recording with [H13R]Aβ40; assay type: binding
T3 construct: [H13R]Aβ40 monomers; purchased American Peptide Company
Procedure: (§3) The procedure described below was used for all experiments. To test the interactions of CRANAD-17 with Aβ species including Aβ42 monomers, Aβ40 monomers and [H13R]Aβ40 monomers, we utilize the following protocol. Step 1: 1.0 mL of PBS buffer was added to a quartz curvet as a blank control and its fluorescence was recorded with the same parameters as for CRANAD-17; Step 2: fluorescence of a CRANAD-17 solution (1 mL, 500 nM) was recorded with excitation at 480 nm and emission from 500 nm to 900 nm; Step 3: to the above CRANAD-17 solution, 10 μL of Aβ species (25 μM) was added to make the final Aβ species concentration of 250 nM, and the fluorescence spectrum from this solution was recorded. The final spectra from steps 2 and 3 were corrected using the blank control from step 1.
Conceivably, it is possible that the pyridyl ring on the other end of CRANAD-3 has a specific interaction with H13 and H14 of Aβ, which have aromatic imidazolium rings and are at the equal distance from K16 as VFF. To this end, the fluorescence intensities of CRANAD-3 with Aβ and H13R substituted Aβ ([H13R]Aβ), in which H13 is replaced by arginine (R) was compared.

[4] = molecular target: T4, human Aβ40 (Homo sapiens, UniProt P05067); assay: Fluorescence spectra recording with Aβ40; assay type: binding; settings: 500 nM compound, 250 nM Aβ
T4 construct: Synthetic amyloid-β peptide (1-40/42) was purchased from rPeptide; purchased rPeptide (Bogart, Ga.)
Procedure: as §3

[5] = molecular target: T2, Aβ42; assay: Thioflavin T test of Aβ42 aggregation; assay type: biochemical; settings: 10 μM compound, 37° C., 24 hours
Procedure: A 2.5 μM of Aβ42 solution in PBS was placed at 37° C. for 24 hours., and 10 μL of this solution was added to 1.0 ml PBS solution. The resulting solution was and then subjected to fluorescence spectrum recording with excitation=440 nm, and emission=470-800 nm (baseline recording). To this solution, 10 μL of thioflavin T (2.5 μM in PBS) was added and the spectrum was recorded. The quantification was conducted at λem=500 nm for Thioflavin T reading by subtracting the baseline reading. For CRANAD-17 (10 μM) incubation, the quantification was conducted by subtracting the readings at baseline and CRANAD-17 at λem=500 nm.

[6] = molecular target: T2, Aβ42; assay: TEM measurement of Aβ42 aggregation; assay type: biochemical; settings: 1.0 μM compound, 250 nM Aβ42, 37° C., 24 hours
Procedure: A 250 nM of Aβ42 in PBS solution was placed was at 37° C. for 24 hours. Next, 5 μL of this solution was dropped onto a Formvar coated TEM grid, followed by the addition of 2 μL of PTA contrast solution. After one minute, the liquid on the grid was carefully dried with a corner of a filter paper, and the resulting grid was further dried in the air for 2-5 minute. The TEM images were taken with JEOL 1011 electron microscope. Similar procedure was used for the incubated solution of CRANAD-l7 (1.0 μM) and Aβ42 (250 nM).

[7] = test system: APP/PS1 mice; assay: In vivo six-month treatment of APP/PS1 mice (NIR imaging, ELISA, plaque counting); settings: 4 mg/kg i.p. twice a week, 6-month treatment
Procedure: Transgenic APP-PS1 mice and age-matched wild type mice were purchased from Jackson Laboratory. In vivo NIR imaging was recorded using the IVIS° Spectrum.
Ten APP/PS 1 mice (4-month) were divided into 2 groups (n=5/group), and one group was i.p. injected with 100 microliter of CRANAD-17 (4 mg/kg, formulated withl0% cremophor, 10% DMSO and 80% PBS) twice a week. After 6-month treatment, the two groups were subjected to NIR imaging with CRANAD-3 (ex=605, em=680 nm), and then were sacrificed. The brain of each mouse was taken, and dissected in two halves. One half brain was subjected to extraction and then to ELISA analysis. The other half brain was dissected into 25 micron slices, and then the slices were stained with Thioflavin S. Eight slices from hippocampus area of each mouse were subjected to amyloid beta plaque counting by ImageJ.

Compound | attenuation of copper-induced crosslinking ([1]; FAM-Aβ42/compound 1:1, 1:5, 1:10) | intensity of monomeric Aβ bands relative to non-treated group [1] | attenuation of copper-induced crosslinking of native Aβ42 ([2]; Western blot) | high molecular weight species on gel [2] | blue-shift with [H13R]Aβ [3] | fluorescence intensity with [H13R]Aβ compared to native Aβ [3] | fluorescence property changes upon mixing with Aβ [4] | Thioflavin T fluorescence signal [5] | visible fibrils by TEM compared to control (Aβ42 treated with copper only) [6] | attenuation effect compared to curcumin and CRANAD-3 ([2]; Western blot) | ELISA analysis of brain extraction, reduction [7] | lower NIR signals than non-treated group (imaging with CRANAD-3) [7] | plaque counting, reduction ([7]; hippocampus slices, Thioflavin S)
c1ccc(-n2ccnc2)cc1 [4-(1H-imidazol-1-yl)benzene] | relatively small compared to CRANAD-17 |  |  |  |  |  |  |  |  |  |  |  | 
COc1cc(/C=C/C(=O)CC(=O)/C=C/c2ccc(O)c(OC)c2)ccc1O [curcumin] |  | 1.07 fold | could attenuate crosslinking | no significant amount of high molecular weight species |  |  |  |  |  |  |  |  | 
CRANAD-17 |  | 1.92 fold | could attenuate crosslinking | a certain amount of high molecular weight oligomeric species | no significant blue-shift | significantly lower fluorescence intensity | intensity increase and blue-shift | lower fluorescence signal | less visible fibrils | significantly higher attenuation effect | 36% | 25% | 78%
